Test results as given in patent US20050009924A1 (priority 2003, published 2005).

How the values were obtained:
rat glioma C6 cells = assay: Cytotoxicity assay (XTT colorimetric), C6 cells; format: cell-based; conditions: Rattus norvegicus, C6; 48 h of drug exposure
[1] = system: hepatitis B virus transfected hepatoma cell lines, HepG 2.2.15 cells; assay: Cytotoxicity assay, 2.2.15 cells; format: cell-based, human; conditions: Homo sapiens, HepG2.2.15; 48 h of drug exposure
[2] = MTT relative viability, PhTERT-SEAP (H1299) cells; conditions: human
[3] = MTT relative viability, PhTERT-SEAP (hTERT-BJ1) cells; conditions: human
[4] = system: transcriptional activity of hTERT; assay: SEAP reporter assay of hTERT expression, PhTERT-SEAP (H1299); format: cell-based, human; conditions: PhTERT-SEAP(hTERT-H1299)
How it was run: (§1)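 Drug exposure: varying amounts, 24 h, following 24 h culture at 37° C and fresh medium. Media heat-inactivated (65° C, 10 min) to remove endogenous phosphatases, then combined 1:1 with diethanolamine/MgCl2/homoarginine buffer and 12 mM p-nitrophenyl phosphate; A405 slope recorded.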

human hepatoma G2 cells = assay: Cytotoxicity assay (XTT colorimetric), Hep G2; format: cell-based; conditions: Homo sapiens, HepG2; 48 h of drug exposure
[5] = system: transcriptional activity of hTERT; assay: SEAP reporter assay of hTERT expression, PhTERT-SEAP (hTERT-BJ1); format: cell-based, human; conditions: PhTERT-SEAP (hTERT-BJ1)
How it was run: as §1

[6] = hTERT-BJ1 cells, stable PhTERT-SEAP reporter clone
[7] = Homo sapiens, NCI-H1299, 2.0 μM, read-out: Relative SEAP activity (%)
[8] = Homo sapiens, NCI-H1299, 20 μM, read-out: Relative SEAP activity (%)
[9] = Homo sapiens, 2.0 μM, read-out: Relative SEAP activity (%)
[10] = Homo sapiens, 20 μM, read-out: Relative SEAP activity (%)

O=C(Cc1cccs1)Nc1ccc(NC(=O)Cc2cccs2)c2c1C(=O)c1ccccc1C2=O [VI25, 1,4-Bis(2-thiopheneacetamido)-9,10-anthracenedione]
IC50 (rat glioma C6 cells): > 20 µM
IC50 [1]: 15.5 µM
melting point: 158 to 160 °C
viability at 48 h, 2 µM [2]: 104 ± 8%
viability at 48 h, 20 µM [2]: 83 ± 6.6%
viability at 48 h, 205 µM [2]: 41 ± 4%
viability at 48 h, 205 µM ([3]; hTERT-BJ1 cells stably transfected with PhTERT-SEAP reporter): 76 ± 6.5%
viability at 48 h, 2 µM [3, 6]: 116 ± 7.5%
viability at 48 h, 20 µM [3, 6]: 105 ± 4.4%
SEAP/vibility ([4]; 2.0 μM): 1.06
SEAP/vibility ([4]; 20 μM): 1.39
SEAP/vibility ([4]; 205 μM): 2.47
activity at 2 µM [4, 7]: 111 ± 3.7%
activity at 20 µM [4, 8]: 115 ± 4.3%
activity at 205 µM ([4]; Homo sapiens, NCI-H1299, 205 μM, read-out: Relative SEAP activity (%)): 102 ± 5.5%
IC50 (human hepatoma G2 cells): > 20 µM
SEAP/vibility ([5]; 2.0 μM): 0.45
SEAP/vibility ([5]; 20 μM): 0.38
SEAP/vibility ([5]; 205 μM): 0.19
activity at 2 µM [5, 9]: 53 ± 17.4%
activity at 20 µM [5, 10]: 40 ± 12.7%
activity at 205 µM ([5]; Homo sapiens, 205 μM, read-out: Relative SEAP activity (%)): 14 ± 24.1%

O=C(Cc1ccc(F)cc1)Nc1ccc(NC(=O)Cc2ccc(F)cc2)c2c1C(=O)c1ccccc1C2=O [VI32, 1,4-Bis(4-fluorophenylacetamido)-9,10-anthracenedione]
IC50 (rat glioma C6 cells): > 20 µM
IC50 [1]: > 20 µM
melting point: 228 to 230 °C
viability at 48 h, 1.9 µM [2]: 108 ± 8.8%
viability at 48 h, 19 µM [2]: 107 ± 7.5%
viability at 48 h, 195 µM [2]: 78 ± 8%
viability at 48 h, 1.9 µM [3, 6]: 107 ± 7.2%
viability at 48 h, 19 µM [3, 6]: 100 ± 6.3%
viability at 48 h, 195 µM [3, 6]: 96 ± 4.1%
SEAP/vibility ([4]; 1.9 μM): 1.00
SEAP/vibility ([4]; 19 μM): 1.03
SEAP/vibility ([4]; 195 μM): 1.39
activity at 1.9 µM ([4]; Homo sapiens, NCI-H1299, 1.9 μM, read-out: Relative SEAP activity (%)): 109 ± 10.8%
activity at 19 µM ([4]; Homo sapiens, NCI-H1299, 19 μM, read-out: Relative SEAP activity (%)): 109 ± 5.8%
activity at 195 µM ([4]; Homo sapiens, NCI-H1299, 195 μM, read-out: Relative SEAP activity (%)): 109 ± 6.6%
IC50 (human hepatoma G2 cells): > 20 µM
SEAP/vibility ([5]; 1.9 μM): 0.84
SEAP/vibility ([5]; 19 μM): 1.02
SEAP/vibility ([5]; 195 μM): 1.01
activity at 1.9 µM ([5]; Homo sapiens, 1.9 μM, read-out: Relative SEAP activity (%)): 90 ± 18.4%
activity at 19 µM ([5]; Homo sapiens, 19 μM, read-out: Relative SEAP activity (%)): 102 ± 20%
activity at 195 µM ([5]; Homo sapiens, 195 μM, read-out: Relative SEAP activity (%)): 97 ± 11.6%

CCN(CC)CC(=O)Nc1ccc(NC(=O)CN(CC)CC)c2c1C(=O)c1ccccc1C2=O [VI33, 1,4-Bis[2-(diethylamino)acetamido]-9,10-anthracenedione]
IC50 (rat glioma C6 cells): 4.46 µM
IC50 [1]: 13 µM
melting point: 85 to 86 °C
viability at 48 h, 2.1 µM [2]: 105 ± 4.9%
viability at 48 h, 21 µM [2]: 87 ± 3.9%
viability at 48 h, 215 µM [2]: 44 ± 2.7%
viability at 48 h, 2.1 µM [3, 6]: 105 ± 2.8%
viability at 48 h, 21 µM [3, 6]: 86 ± 3.5%
viability at 48 h, 215 µM [3, 6]: 32 ± 13.1%
SEAP/vibility ([4]; 2.1 μM): 0.94
SEAP/vibility ([4]; 21 μM): 0.99
SEAP/vibility ([4]; 215 μM): 1.11
activity at 2.1 µM ([4]; Homo sapiens, NCI-H1299, 2.1 μM, read-out: Relative SEAP activity (%)): 98 ± 3.3%
activity at 21 µM ([4]; Homo sapiens, NCI-H1299, 21 μM, read-out: Relative SEAP activity (%)): 86 ± 7.4%
activity at 215 µM ([4]; Homo sapiens, NCI-H1299, 215 μM, read-out: Relative SEAP activity (%)): 48 ± 2.3%
IC50 (human hepatoma G2 cells): 0.65 µM
SEAP/vibility ([5]; 2.1 μM): 1.06
SEAP/vibility ([5]; 21 μM): 1.40
SEAP/vibility ([5]; 215 μM): 2.61
activity at 2.1 µM ([5]; Homo sapiens, 2.1 μM, read-out: Relative SEAP activity (%)): 111 ± 24.4%
activity at 21 µM ([5]; Homo sapiens, 21 μM, read-out: Relative SEAP activity (%)): 120 ± 25.6%
activity at 215 µM ([5]; Homo sapiens, 215 μM, read-out: Relative SEAP activity (%)): 83 ± 19%

CCN(CC)C(C)C(=O)Nc1ccc(NC(=O)C(C)N(CC)CC)c2c1C(=O)c1ccccc1C2=O (stereo not shown) [VI35, 1,4-Bis[2-(diethylamino)propionamido]-9,10-anthracenedione]
IC50 (rat glioma C6 cells): 18.1 µM
IC50 [1]: 8.57 µM
melting point: 175 to 177 °C
viability at 48 h, 2 µM [2]: 96 ± 7.9%
viability at 48 h, 20 µM [2]: 77 ± 7.2%
viability at 48 h, 203 µM [2]: 75 ± 4.6%
viability at 48 h, 2 µM [3, 6]: 97 ± 3.9%
viability at 48 h, 20 µM [3, 6]: 52 ± 7.2%
viability at 48 h, 203 µM [3, 6]: 36 ± 5.8%
SEAP/vibility ([4]; 2.0 μM): 1.00
SEAP/vibility ([4]; 20 μM): 1.35
SEAP/vibility ([4]; 203 μM): 0.98
activity at 2 µM [4, 7]: 96 ± 14.3%
activity at 20 µM [4, 8]: 104 ± 6%
activity at 203 µM ([4]; Homo sapiens, NCI-H1299, 203 μM, read-out: Relative SEAP activity (%)): 73 ± 11.7%
IC50 (human hepatoma G2 cells): 2.02 µM
SEAP/vibility ([5]; 2.0 μM): 0.41
SEAP/vibility ([5]; 20 μM): 0.94
SEAP/vibility ([5]; 203 μM): 0.61
activity at 2 µM [5, 9]: 40 ± 14.5%
activity at 20 µM [5, 10]: 49 ± 9.3%
activity at 203 µM ([5]; Homo sapiens, 203 μM, read-out: Relative SEAP activity (%)): 22 ± 6.6%
